What all share (experiment): NCI tumour cell line growth inhibition, 48 h
The test system of experiment [1] is M14 melanoma.
Experiment [2] relates to A549 NSCLC.
Experiment [3] relates to UACC-257 melanoma.
The subject of experiment [4] is SNB-75 CNS.
The test system of experiment [5] is HCC-2998 colon.
Experiment [6] deals with HOP-62 NSCLC.
The test system of experiment [7] is TK-10 renal.
The test system of experiment [8] is CAKI-1 renal.
The test system of experiment [9] is HCT-116 colon.
The subject of experiment [10] is A498 renal.

The values that follow come from PubChem BioAssay (NCI).

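1) Cells in 96-well plates. 2) Compound, 48 h, 5 concentrations. 3) Linear interpolation between surrounding doses. 4) Unreached endpoint = highest concentration. The concentration for 50% growth inhibition is given as GI50. TGI is the concentration that stops growth completely.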

Consider `CC[CH2][Sn]([Cl])([Cl])[CH2]CC`, for which the GI50 was 11.1 µM in [1]; 18.2 µM in [2]; 4.59 µM in experiment [3]; 6.24 µM in [4]; 10.1 µM in [5]; 16.6 µM in [6]. The GI50 in [7] is 3.16 µM; in experiment [8] it was 6.69 µM; in experiment [9], 13.1 µM; in [10], 1.54 µM. In addition, the TGI in [1] was determined as 24.1 µM; in experiment [2] it was 34.3 µM; in experiment [3] it was 19.2 µM; in [4] it was 20.1 µM; in experiment [5], 22 µM; in experiment [6], 31.3 µM. Besides, the TGI in experiment [7] was found to be 11.1 µM; in [8], 21 µM; in [9], 25.8 µM; in experiment [10], 3.62 µM.
Take `C[C@H]1CC(=O)C2=CCCC3(SCCCS3)[C@@H]2[C@H]1CO`: the TGI in [1], in experiment [2], in experiment [3], in experiment [4], in experiment [5] and in experiment [6] was > 100 µM throughout. Besides, the TGI in experiment [7], in experiment [8], in [9] and in experiment [10] was > 100 µM throughout.
`CNC(C)C(=O)N[C@H](C(=O)N1CCC[C@@H]1CN(CCc1ccccc1)C(=O)C(F)(F)F)[C@H](C)OCC#CC#CCO[C@H](C)[C@H](NC(=O)[C@H](C)NC)C(=O)N1CCC[C@H]1CN(CCc1ccccc1)C(=O)C(F)(F)F` (some centres not stated): the GI50 is 1.79 µM in experiment [1]; 1.72 µM in experiment [2]; 1.28 µM in [3]; < 0.037 µM in experiment [4]; 1.45 µM in experiment [5]; 0.729 µM in experiment [6]. Moreover, the GI50 in [7] is 2.22 µM; in experiment [8], 2.39 µM; in experiment [9], 1.43 µM; in experiment [10], 1.03 µM. Further, the TGI came out at 3.41 µM in experiment [1]; 3.27 µM in experiment [2]; 2.72 µM in [3]; 0.764 µM in [4]; 3.04 µM in experiment [5]; 2.46 µM in experiment [6]. For the same compound, the TGI in experiment [7] was 3.8 µM; in [8], 5.51 µM; in experiment [9] it was 2.78 µM; in experiment [10], 2.61 µM.
As to `CC1=C(c2cc(C(=O)Nc3ccc(Cl)c(Cl)c3)nc(N)n2)Sc2ccccc2N1`, the TGI in [1], in experiment [2], in [3], in experiment [4], in experiment [5] and in experiment [6] was > 100 µM throughout. In addition, the TGI in [7], in [8], in experiment [9] and in experiment [10] was > 100 µM in each case.
Consider `COc1ccc(/C=C\c2cc(OC)c(OC)c(OC)c2)cc1OC(=O)c1cccc(Cn2cc(CCOC(=O)c3cccc(Cn4nnc5c4C(=O)c4ccccc4C5=O)c3)nn2)c1`, for which the GI50 in [1] was < 0.01 µM; in experiment [2], 0.0392 µM; in [3], 22.9 µM; in experiment [4], < 0.01 µM; in experiment [5] it was 0.0362 µM; in experiment [6] it was 0.0381 µM. In addition, the GI50 in experiment [7] is 9.58 µM; in experiment [8] it was 0.0459 µM; in experiment [9], < 0.01 µM; in [10], < 0.01 µM. Further, the TGI is 10.9 µM in experiment [1]; > 37.9 µM in [2]; > 100 µM in experiment [3]; 22.1 µM in experiment [4]; > 47.8 µM in [5]; 27 µM in experiment [6]. The results for the TGI in [7], in experiment [8] and in experiment [9] were 33.5 µM, 20.1 µM and > 33.2 µM, respectively.
On to `O=C(c1cccs1)c1c(C(F)(F)F)n([O-])c2ccc(F)cc2[n+]1=O`, for which the GI50 in [1] was 1.54 µM; in [2], 2.32 µM; in experiment [3], 1.53 µM; in [4] it was 1.47 µM; in experiment [5] it was 0.8 µM; in experiment [6] it was 1.58 µM. Besides, the GI50 in experiment [7] was 1.41 µM; in experiment [8], 1.62 µM; in [9], 0.922 µM; in [10], 1.95 µM. Further, the TGI in [1] came to 3 µM; in experiment [2] it was 7.02 µM; in [3] it was 2.91 µM; in experiment [4], 2.82 µM; in experiment [5], 1.98 µM; in experiment [6] it was 3.13 µM. Moreover, the TGI in [7] came out at 3.06 µM; in [8], 3.14 µM; in experiment [9] it was 2.41 µM; in experiment [10], 4.08 µM.
For the compound `COC(=O)C1CCC(Nc2cccc(C(F)(F)F)c2)=N1` (configuration not stated), the TGI in experiment [1], in experiment [2], in experiment [3], in experiment [4], in experiment [5] and in experiment [6] was > 100 µM throughout. For the same compound, the TGI in experiment [7], in experiment [8], in [9] and in experiment [10] was > 100 µM throughout.
Turning to `COc1cc2c3c(n(C)c(=O)c2cc1OC)-c1cc2c(cc1/C3=C\CCCBr)OCO2`, the GI50 in experiment [1] was > 96.6 µM; in experiment [2], > 100 µM; in experiment [3], > 41.5 µM; in [4] it was 0.398 µM; in experiment [7], 15.2 µM; in experiment [8], 48.1 µM. For the same compound, the results for the GI50 in experiment [9] and in experiment [10] were 27.2 µM and 26.3 µM, respectively. Also, the TGI in experiment [1] is > 100 µM; in experiment [2] it was > 100 µM; in experiment [3], > 100 µM; in [4], 12.8 µM; in experiment [5], > 51.3 µM; in experiment [6] it was 17.1 µM. The TGI in experiment [7] is > 53.4 µM; in [8], > 100 µM; in experiment [9], > 60.8 µM; in experiment [10], 68.9 µM.
